Melting point data for 4 compounds are collected here from patent US20110021505A1, “Use of sulfonyl-substituted 2-sulfonylaminobenzoic acid N-phenylamides in the treatment of pain” (SANOFI-AVENTIS DEUTSCHLAND GMBH, priority 2007, published 2011).

Each structure is given as a SMILES string.

Usually melting point stands for the temperature of the solid-liquid transition. As for `COc1cc(NS(=O)(=O)c2ccc(Cl)s2)c(C(=O)Nc2ccc(S(=O)(=O)N(C)Cc3cccnc3)cc2)cc1OC.Cl`, the melting point came out at 214 °C.
Then `O=C(Nc1ccc(S(=O)(=O)N2CCSCC2)cc1)c1cc(Cl)ccc1NS(=O)(=O)c1ccc(Cl)cc1` [Example 15, 5-Chloro-2-(4-chloro-phenylsulfonylamino)-N-(4-(thiomorpholine-4-sulfonyl)-phenyl)-benzamide], with 246 °C; and `Cc1ccc(S(=O)(=O)Nc2ccc(Cl)cc2C(=O)Nc2ccc(S(=O)(=O)N3CCOCC3)cc2)cc1` [Example 57, 5-Chloro-N-(4-(morpholine-4-sulfonyl)-phenyl)-2-(4-methyl-phenylsulfonylamino)-benzamide], with 214 °C.
Then `O=C(Nc1ccc(S(=O)(=O)N2CCS(=O)(=O)CC2)cc1)c1cc(Cl)ccc1NS(=O)(=O)c1ccc(Cl)cc1` [Example 92, 5-Chloro-2-(4-chloro-phenylsulfonylamino)-N-(4-(1,1-dioxo-thiomorpholine-4-sulfonyl)-phenyl)-benzamide], with 182 °C.
